The text below walks through data of US8933074B2, “1,2-disubstituted heterocyclic compounds” (FORUM Pharmaceuticals Inc., priority 2008, dated 2015).

One experiment relates to rat.
Test: not given
The following applies: rats; cited from earlier work.
For `COc1ccc(Cc2nccc3cc(OC)c(OC)cc23)cc1OC` [papaverine], the apomorphine induced stereotypes result is recorded as “reduces”, the haloperidol induced catalepsy result is “increases” and the “rat brain dopamine levels” value was “reduces”.

The target of another experiment is Human PDE10A1 (Homo sapiens, UniProt Q9Y233). Nature of the experiment: hPDE10A1 enzyme inhibition. Type of experiment: biochemical. The following applies: [3H]-cAMP substrate, 20 minutes at 37° C.; read-out: hPDE10A1 IC50 Band. On the procedure: 50 μl samples of serially diluted Human PDE10A1 enzyme were incubated with 50 μl of [^3H]-cAMP for 20 minutes (at 37° C.). Reactions were carried out in Greiner 96 deep well 1 ml master-block. The enzyme was diluted in 20 mM Tris HCl pH7.4 and [^3H]-cAMP was diluted in 10 mM MgCl2, 40 mM Tris.HCl pH 7.4. The reaction was terminated by denaturing the PDE enzyme (at 70° C.) after which [^3H]-5′-AMP was converted to [^3H]-adenosine by adding 25 μl snake venom nucleotidase and incubating for 10 minutes (at 37° C.). Adenosine, being neutral, was separated from charged cAMP or AMP by the addition of 200 μl Dowex resin. Samples were shaken for 20 minutes then centrifuged for 3 minutes at 2,500 r.p.m. 50 μl of supernatant was removed and added to 200 μl of MicroScint-20 in white plates (Greiner 96-well Optiplate) and shaken for 30 minutes before reading on Perkin Elmer TopCount Scintillation Counter.
Sequence of Human PDE10A1 (Q9Y233 1-779 isoform Q9Y233-1): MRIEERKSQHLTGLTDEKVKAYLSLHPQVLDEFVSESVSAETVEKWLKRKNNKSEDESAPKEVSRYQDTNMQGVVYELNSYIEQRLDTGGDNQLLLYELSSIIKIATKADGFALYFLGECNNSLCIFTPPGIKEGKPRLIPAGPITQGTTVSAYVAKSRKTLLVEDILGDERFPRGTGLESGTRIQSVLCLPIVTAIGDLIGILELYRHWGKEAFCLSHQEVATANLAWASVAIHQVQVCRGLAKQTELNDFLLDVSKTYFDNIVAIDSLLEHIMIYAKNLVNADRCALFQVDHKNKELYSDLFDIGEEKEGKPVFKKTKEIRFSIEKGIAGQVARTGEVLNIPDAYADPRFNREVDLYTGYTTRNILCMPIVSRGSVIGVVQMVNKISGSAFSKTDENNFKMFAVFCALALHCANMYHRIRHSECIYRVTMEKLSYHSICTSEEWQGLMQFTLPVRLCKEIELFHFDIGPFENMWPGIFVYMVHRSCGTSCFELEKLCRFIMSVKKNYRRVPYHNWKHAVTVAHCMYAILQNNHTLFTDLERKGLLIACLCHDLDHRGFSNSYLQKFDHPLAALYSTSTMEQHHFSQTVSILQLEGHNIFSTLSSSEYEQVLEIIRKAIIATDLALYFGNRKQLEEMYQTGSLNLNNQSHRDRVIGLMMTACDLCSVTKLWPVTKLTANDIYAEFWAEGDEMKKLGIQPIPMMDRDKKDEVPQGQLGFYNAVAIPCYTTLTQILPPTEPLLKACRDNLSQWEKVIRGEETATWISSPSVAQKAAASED
To check inhibition profile 11 μl of serially diluted inhibitor was added to 50 μl of [^3H]-cAMP and 50 ul of diluted Human PDE10A1 and assay was carried out as in the enzyme activity assay. Data was analysed using Prism software (GraphPad Inc).
For orientation: IC50 means the point on the concentration scale where inhibition reaches its midpoint. For `CC1(C)OC(c2cscn2)=C(c2ccc(OCc3ccc4ccccc4n3)cc2)C1=O` [Example 174, 2,2-dimethyl-4-(4-(quinolin-2-ylmethoxy)phenyl)-5-(thiazol-4-yl)furan-3(2H)-one], the IC50 is no more than 50 nM.
As to `CC1(C)OC(c2ccc(OCc3ccc4ccccc4n3)cc2)=C(c2ccncc2)C1=O` [Example 249, 2,2-dimethyl-4-(pyridin-4-yl)-5-(4-(quinolin-2-ylmethoxy)phenyl) furan-3(2H)-one], the IC50 is no more than 50 nM.
With `COc1ccc(C2=C(c3ccc(OCc4ccc5ccccc5n4)cc3)OC(C)(C)C2=O)cc1` [Example 262, 4-(4-methoxyphenyl)-2,2-dimethyl-5-(4-(quinolin-2-ylmethoxy)phenyl)furan-3(2H)-one], the IC50 is no more than 50 nM.
The same measure, in the same setting: the value for `Cc1ccc(COc2ccc(C3=C(c4ccncc4)OC(C)(C)C3=O)cc2)nc1` [Example 808, 2,2-dimethyl-4-(4-((5-methylpyridin-2-yl)methoxy)phenyl)-5-(pyridin-4-yl) furan-3(2H)-one] was no more than 50 nM; that for `Cc1cnc(COc2ccc(C3=C(c4ccncc4)OC(C)(C)C3=O)cc2)c(C)c1` [Example 809, 4-(4-((3,5-Dimethylpyridin-2-yl)methoxy)phenyl)-2,2-dimethyl-5-(pyridin-4-yl) furan-3(2H)-one] was no more than 50 nM.
In the case of `CC1(C)OC(c2ccncc2)=C(c2ccc(OCc3ccc4cc(F)ccc4n3)cc2)C1=O` [Example 810, 4-(4-((6-Fluoroquinolin-2-yl)methoxy)phenyl)-2,2-dimethyl-5-(pyridin-4-yl) furan-3(2H)-one], the IC50 is no more than 50 nM.
Turning to `CC1(C)OC(c2ccccc2)=C(c2ccc(OCc3ccc4ccccc4n3)cc2)C1=O` [Example 811, 2,2-dimethyl-5-phenyl-4-(4-(quinolin-2-ylmethoxy)phenyl)furan-3(2H)-one], the IC50 was no more than 50 nM.
Regarding `CN1C(=O)C(c2ccc(OCc3ccc4ccccc4n3)cc2)=C(N2CCOCC2)C1=O` [Example 812, 1-Methyl-3-morpholino-4-(4-(quinolin-2-ylmethoxy)phenyl)-1H-pyrrole-2,5-dione], the IC50 is greater than 50 nM.
`CC1(C)OC(c2ccc(O)cc2)=C(c2ccc(OCc3ccc4ccccc4n3)cc2)C1=O` [Example 813, 5-(4-hydroxyphenyl)-2,2-dimethyl-4-(4-(quinolin-2-ylmethoxy)phenyl)furan-3(2H)-one]: the IC50 is no more than 50 nM.
Take `CC(=O)Nc1ccc(C2=C(c3ccc(OCc4ccc5ccccc5n4)cc3)C(=O)C(C)(C)O2)cc1` [Example 814, N-(4-(5,5-dimethyl-4-oxo-3-(4-(quinolin-2-ylmethoxy)phenyl)-4,5-dihydrofuran-2-yl)phenyl)acetamide]: the IC50 was no more than 50 nM.
Turning to `CC1(C)OC(c2ccc(NS(C)(=O)=O)cc2)=C(c2ccc(OCc3ccc4ccccc4n3)cc2)C1=O` [Example 815, N-(4-(5,5-dimethyl-4-oxo-3-(4-(quinolin-2-ylmethoxy)phenyl)-4,5-dihydrofuran-2-yl)phenyl)methanesulfonamide], the IC50 was no more than 50 nM.
Consider `CC1(C)OC(c2ccc(N(S(C)(=O)=O)S(C)(=O)=O)cc2)=C(c2ccc(OCc3ccc4ccccc4n3)cc2)C1=O` [Example 817, N-(4-(5,5-dimethyl-4-oxo-3-(4-(quinolin-2-ylmethoxy)phenyl)-4,5-dihydrofuran-2-yl)phenyl)-N-(methylsulfonyl)methanesulfonamide], for which the IC50 is no more than 50 nM.
In the case of `Cc1ccc(C2=C(c3ccc(OCc4ccc5ccccc5n4)cc3)C(=O)C(C)(C)O2)cc1` [Example 818, 2,2-dimethyl-4-(4-(quinolin-2-ylmethoxy)phenyl)-5-p-tolylfuran-3(2H)-one], the IC50 was no more than 50 nM.
In the case of `CC(=O)N(C(C)=O)c1ccc(C2=C(c3ccc(OCc4ccc5ccccc5n4)cc3)C(=O)C(C)(C)O2)cc1` [Example 819, N-acetyl-N-(4-(5,5-dimethyl-4-oxo-3-(4-(quinolin-2-ylmethoxy)phenyl)-4,5-dihydrofuran-2-yl)phenyl)acetamide], the IC50 was no more than 50 nM.
For `CN1C(=O)C(c2ccc(OCc3ccc4ccccc4n3)cc2)=C(N2CCC(=O)CC2)C1=O` [Example 820, 1-Methyl-3-(4-oxopiperidin-1-yl)-4-(4-(quinolin-2-ylmethoxy)phenyl)-1H-pyrrole-2,5-dione], the IC50 was greater than 50 nM.
For `CC1(C)OC(c2ccc3ocnc3c2)=C(c2ccc(OCc3ccc4ccccc4n3)cc2)C1=O` [Example 821, 5-(benzo[d]oxazol-5-yl)-2,2-dimethyl-4-(4-(quinolin-2-ylmethoxy)phenyl)furan-3(2H)-one], the IC50 is no more than 50 nM.
Take `COc1ccc(-c2c(-c3ccc(OCc4ccc5ccccc5n4)cc3)n(C)c(=O)n2C)cc1` [Example 822, 4-(4-Methoxyphenyl)-1,3-dimethyl-5-(4-(quinolin-2-ylmethoxy)phenyl)-1H-imidazol-2(3H)-one]: the IC50 was greater than 50 nM.
For the compound `COc1ccc(C2=C(c3ccc(OCc4ccc5ccccc5n4)cc3)C(=O)NC2(C)C)cc1` [Example 823, 4-(4-methoxyphenyl)-5,5-dimethyl-3-(4-(quinolin-2-ylmethoxy)phenyl)-1H-pyrrol-2(5H)-one], the IC50 was no more than 50 nM.
Regarding `O=C1C(c2ccc(OCc3ccc4ccccc4n3)cc2)=C(c2ccncc2)OC12CCCC2` [Example 824, 2-(pyridin-4-yl)-3-(4-(quinolin-2-ylmethoxy)phenyl)-1-oxaspiro[4.4]non-2-en-4-one], the half-maximal inhibitory concentration (IC50) was no more than 50 nM.
